Assay results from PubChem BioAssay (NCI).
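These data come from cells grown in 96-well plates and exposed to compound for 48 hours at five concentrations. GI50 is the concentration that inhibits growth by half. The concentration for full growth arrest is given as TGI.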

Experiments:
Test in all cases: inhibition of tumour cell growth, NCI panel, 48 h
SK-MEL-28 melanoma = system: SK-MEL-28 melanoma
NCI-H23 lung = system: NCI-H23 lung
LOX IMVI melanoma = system: LOX IMVI melanoma
COLO 205 colon = system: COLO 205 colon
MDA-MB-231 breast = system: MDA-MB-231 breast
SK-MEL-2 melanoma = system: SK-MEL-2 melanoma
HCT-116 colon = system: HCT-116 colon
HT29 colon = system: HT29 colon
SW-620 colon = system: SW-620 colon
SNB-19 CNS = system: SNB-19 CNS

Compound | GI50 (SK-MEL-28 melanoma) [µM] | TGI (SK-MEL-28 melanoma) [µM] | GI50 (NCI-H23 lung) [µM] | TGI (NCI-H23 lung) [µM] | GI50 (LOX IMVI melanoma) [µM] | TGI (LOX IMVI melanoma) [µM] | GI50 (COLO 205 colon) [µM] | TGI (COLO 205 colon) [µM] | GI50 (MDA-MB-231 breast) [µM] | TGI (MDA-MB-231 breast) [µM] | GI50 (SK-MEL-2 melanoma) [µM] | TGI (SK-MEL-2 melanoma) [µM] | GI50 (HCT-116 colon) [µM] | TGI (HCT-116 colon) [µM] | GI50 (HT29 colon) [µM] | TGI (HT29 colon) [µM] | GI50 (SW-620 colon) [µM] | TGI (SW-620 colon) [µM] | GI50 (SNB-19 CNS) [µM] | TGI (SNB-19 CNS) [µM]
OCCNC(=S)Nc1ccc(-c2nc(N3C[C@H]4CC[C@@H](C3)O4)c3cccn3n2)cc1 | 0.028 | 0.499 | 0.0798 | 16.7 | 0.202 | 7.65 | 0.0365 | 1.69 | 0.0583 | 6.57 | 0.0637 | 0.579 | 0.357 | 21.7 | 0.117 | 22.5 | 0.203 | 13.8 | 0.189 | 13.2
Cc1ccccc1NC(=O)N/C(N)=N/c1nc(C)c(C)s1 | 23.7 | > 100 | 0.519 | > 100 | 0.444 | > 100 | 0.295 |  | 1.52 | > 100 | 0.61 | > 100 | 0.321 | > 75.9 | 0.104 | > 33 | 0.163 | > 100 | 0.283 | 52.7
COc1ccc(C(=O)OC2C(OC3C(O)COC(O[C@H]4C[C@H]5[C@@H]6CC=C7C[C@@H](O)CC[C@]7(C)[C@H]6CC[C@]5(C)[C@H]4[C@H](C)C(=O)CCC(C)C)C3OC(=O)C(C)C)OCC(O)C2O)cc1 (some centres undefined) | 0.011 | 0.0612 | 0.175 | 4.67 | 0.0107 | 0.0488 | 0.0575 | 0.325 | 0.101 | 4.65 | 0.0102 | 0.213 | 0.0107 | 3.25 | 0.0507 | 4.85 | 0.0125 | 0.389 | 0.0336 | 3.97
C[C@]12CC/C(=N\O)C[C@@H]1CC[C@@H]1[C@@H]2CC[C@]2(C)/C(=N/O)CC[C@@H]12 | > 100 | > 100 | 45.6 | 80.2 | 21.3 | 50.7 | 35.8 | > 100 | 26 | 73.8 | 32.9 | 97 | 23.3 | 58.5 | 42.7 | > 100 | 57.1 | > 100 | 79.5 | > 100
COc1ccc2c(c1)[n+]([O-])c(/C(C)=N/NC(N)=S)c(C)[n+]2[O-] |  | > 100 |  | > 100 |  | > 100 |  | > 100 |  | > 100 |  | > 100 |  | > 93.2 |  | > 100 |  | > 100 |  | > 100
CCCCCCCC(=O)SCC/C=C/[C@@H]1CC(=O)NCc2cccc(n2)C2=N[C@@](C)(CS2)C(=O)N[C@@H](C(C)C)C(=O)O1 | 0.0312 | 3.01 | 0.0858 | > 33.3 | 0.0501 | 0.193 | 0.0857 | 0.337 | 0.119 | > 19.8 | 0.0369 | 0.881 | 0.0148 | 0.219 | 0.0256 | > 33.3 | 0.0921 | 3.72 | 0.191 | > 33.3
C[C@@]1([C@H](OC(=O)c2cccc3ccccc23)C(N)=O)CO1 | 3.08 | 15.2 | 1.23 | 5.65 | 0.316 | 1.62 | 2.99 | 14.4 | 1.27 | 9.12 | 1.12 | 7.09 | 0.368 | 8.43 | 1.05 | > 24 | 1.1 |  | 5.75 | > 37.5
CC(C)(C)n1nc(C2CC2)cc1NC(=O)Nc1ccc(Cl)cc1 |  | > 100 |  | > 100 |  | > 100 |  | > 100 |  | > 100 |  | > 100 |  | > 100 |  | > 100 |  | > 100 |  | > 100
Cc1ccc(C(=O)Nc2ccc(CN3CCN(C)CC3)c(C(F)(F)F)c2)cc1C#Cc1cnc(N)c2ccc(C#N)cc12 | 0.108 | 3.47 | 1.1 | 18.2 | 0.0419 | 6.79 | 0.28 | > 46.5 | 0.23 | 2.02 | 0.0327 | 9.51 | 0.167 | 7.3 | 0.211 |  | 1.8 | > 28.3 | 3.2 | 19.9
COc1ccc(NC(=O)COc2ccccc2)c(C(N)=O)c1 | 6.13 | > 100 | 2.61 | 35.5 | 3.14 | > 100 | 0.505 | 6.56 | 1.91 | > 63 | 0.729 | > 83.2 | 0.588 | > 100 | 0.43 | > 100 | 0.511 | > 100 | 1.9 | > 68.9
Nc1nc(=O)c2[nH]cnc2n1O |  | > 100 |  | > 100 |  | > 100 |  | > 100 |  | > 100 |  | > 100 |  | > 100 |  | > 100 |  | > 100 |  | > 100
Oc1ccccc1/C=N/Nc1nc2ccccc2s1 | 89 | > 100 | 23.3 | > 100 | 4.3 | > 100 | 4.7 | > 100 | 2.49 | > 100 | 8.74 | > 100 | 2.85 | > 100 | 21.1 | > 100 | 16.3 | > 100 | 18.7 | > 100
COc1ccc(/C=C(/C(=O)N2CCN(c3ccc(C)cc3)CC2)c2cc(OC)c(OC)c(OC)c2)cc1N | 0.54 | > 100 | 0.438 | > 100 | 0.221 | > 100 | 0.339 | 1.47 | 0.36 | > 100 | 0.64 | > 100 | 0.254 | > 32.9 | 0.339 | > 39.2 | 0.407 | > 100 | 0.426 | > 100
O=C1c2cccc3c([N+](=O)[O-])ccc(c23)C(=O)N1CCCCl | 3.84 | > 10 | 5.07 | > 10 | 1.47 | 2.96 | > 10 | > 10 | > 10 | > 10 | > 10 | > 10 | 1.71 | 3.16 | 4.25 | > 10 | 2.08 | 5.95 | > 10 | > 10
C=C(C)[C@@H]1CC[C@]2(C(=O)N3CCN(C)CC3)CC[C@]3(C)[C@H](CC[C@@H]4[C@@]5(C)C/C(=C/c6ccncc6)[C@H](O)C(C)(C)[C@@H]5CC[C@]43C)[C@@H]12 | 7.46 | 22.2 | 8.73 | > 100 | 4.01 | 17.3 | 3.16 | 23 | 4.46 | 19.3 | 8.41 | 26.2 | 1.6 | 4.46 | 1.88 | 11.2 | 3.75 | 17.7 | 8.68 | > 100
S=P(C1CCCCC1)(C1CCCCC1)C(c1cccnc1)N1CCCC1 (centres undefined) |  | > 100 |  | 34.6 |  | 23.6 |  | 37.3 |  | 39.1 |  | 48.7 |  | 34.2 |  | > 100 |  | > 100 |  | > 100
Nc1nc2ccccc2c2[nH]c3ccccc3c12 | 1.79 | 3.19 | 1.37 | 2.86 | 1.05 | 2.28 | 1.07 | 2.33 | 1.22 | 2.57 | 1.54 | 2.88 | 0.499 | 1.83 | 0.509 | 1.93 | 0.384 | 1.96 | 1.1 | 3.71
COc1cc(/C=C/C(=O)c2ccc(F)cc2)ccc1OCCCCOc1cc2c(cc1OC)C(=O)N1CCCC1C=N2 (centres undefined) | 15.3 | > 100 | 1.47 | > 23.5 | 0.472 | 1.11 | 2.11 | 9.19 | 1.27 | > 21.2 | 1.33 | 12.8 | 0.618 | 6.09 | 0.895 | > 20.4 | 0.481 |  | 1.04 | > 19.9
CC/C=C\C[C@H](O)C/C=C1/C(=O)C=C[C@@H]1C/C=C\CCCC(=O)OCCS(=O)(=O)c1ccccc1 | 2.72 | 8.02 | 2.82 | 10.6 | 1.44 | 3.66 | 2.85 | 6.89 | 5.34 | 20.7 | 4.14 | 17.9 | 2.35 | 5.06 | 3.29 | 8.54 | 4.07 | 14.9 | 5.06 | 19.4
COc1ccc(-c2cc(=O)c3c(OC)c(O)c(OC)cc3o2)cc1 |  | > 100 |  | > 100 |  | > 100 |  | > 100 |  | > 100 |  | > 100 |  | > 100 |  | > 100 |  | > 100 |  | > 100
CS(=O)(=O)c1nccc(-c2c(-c3cccc(OCc4ccccc4)c3)nc3sccn23)n1 | 12.2 | > 100 | 12.8 | > 100 | 5.13 | > 100 | 25.3 | > 100 | 16.2 | > 100 | > 100 | > 100 | 7.16 | > 100 | > 41.2 | > 100 | 4.67 | > 100 | > 43.8 | > 100
COc1ccc2c(c1)O/C(=C\c1ccc([N+](=O)[O-])o1)C2=O | 2.17 | 5.02 | 1.99 | 5.81 | 1.14 | 2.96 | 1.18 | 3.12 | 2.03 | 6.63 | 2.13 | 4.01 | 0.246 | 0.747 | 0.452 | 1.92 | 0.294 | 1.39 | 3.09 | > 100
CCCCCCCCCCCCCCCCSS(C)(=O)=O |  | 25.4 |  | > 75.8 |  | 19.3 |  | 47.4 |  | > 100 |  | > 42.4 |  | 43.5 |  | > 69.6 |  | 13.2 |  | > 100
CCC1CCC2C3CC=C4CC(OC(C)=O)C(N)CC4(C)C3CCC12C (centres undefined) |  | 10.4 |  | 13.6 |  | 4.12 |  | 10 |  | 4.09 |  | 8.32 |  | 6.14 |  | 6.32 |  | 11.2 |  | 6.49
O=c1[nH]ccc2nc(N3CCC(O)CC3)nc(Nc3ccc(N4CCOCC4)cc3)c12 | > 100 | > 100 | 8.71 | > 100 | 1.38 | > 100 | 1.71 | 5.05 | 7.41 | > 100 | 2.27 | > 100 | 0.736 | > 100 | 1.06 | > 100 | 1.75 | > 100 | > 78.8 | > 100
COc1ccc(-c2cnc(SCC(=O)c3c(C)n(C)n(-c4ccccc4)c3=O)n2-c2ccc(OC)cc2)cc1 | > 50 | > 50 | > 50 | > 50 | 46.5 | > 50 | > 50 | > 50 | > 50 | > 50 | > 50 | > 50 | 20.3 | > 50 | > 50 | > 50 | > 50 | > 50 | > 50 | > 50
O=C1C2=C(C(=O)c3c(O)ccc(O)c31)N(c1cccnc1)Cc1ccccc1O2 | 0.266 | 0.644 |  |  | 0.127 | 0.56 | 0.102 | 0.333 | 0.265 | 0.876 | 1.54 | 4.78 | 0.0923 | 0.324 | 0.313 | 4.23 | 0.145 | 0.357 | 2.6 | 10.7
